# According to patent publication US12268690B2, “Treatments for mutations in acute myeloid leukemia” (OREGON HEALTH & SCIENCE UNIVERSITY, priority 2018, dated 2025):
# System: freshly isolated mononuclear cells from AML samples
# Assay: Ex vivo functional drug screen (MTS viability, AUC) on primary AML samples, compared by mutation or clinical group
# Format: cell-based, human
# Text: This panel contained graded concentrations of a drugs with activity against two-thirds of the tyrosine kinome as well as other non-tyrosine kinase pathways, including MAPKs, PI3K/AKT/mTOR, AMPK, ATM, Aurora kinases, CAMKs, CDKs, GSK3a/b, IκK, PKA, PKC, PLK1, and RAF. In addition, the library contained small molecule inhibitors with activity against the BCL2 family, BRD4, Hedgehog, HSP90, NOTCH/gamma-secretase, proteasome, survivin, STAT3, and WNT/beta-catenin. Drug sensitivity patterns were analyzed with respect to clinical and genetic features of tumors. We compared the average area-under-the curve (AUC) values for each drug between the de novo and transformed samples via a series of single factor ANOVAs. […] In addition, we analyzed the concordance of drug sensitivity patterns with respect to predicted target gene, gene family, or pathway for each drug. […] To create a global view of overall sensitivity or resistance of each case, we generated a heatmap of binary sensitive/resistant calls for each sample to each drug.
# Correlation of drug sensitivity with mutational events was performed by assessing the range of sensitivity of cases with mutation of an individual gene (as well as co-occurring mutational events) versus cases with wild type sequence for that same gene. […] The difference in average drug sensitivity of mutant versus wild type cases for each drug/mutation pair was plotted on the horizontal axis of a volcano plot with a test for statistical significance of the comparison plotted on the vertical axis (corrected for multiple comparison false discovery rate^42; FIG. 4). […] To aid in discovery of potential mutational biomarkers of drug sensitivity, we plotted volcano plots that were specific to each individual drug (versus all possible mutational events) and for each individual gene (versus all possible drugs tested).
# Ex vivo drug screens were performed on freshly isolated mononuclear cells from AML samples as previously described^41.
# Ex vivo functional drug screens were performed on freshly isolated mononuclear cells from AML samples. […] Drug plates were created using inhibitors purchased from LC Laboratories and Selleck Chemicals and master stocks were reconstituted in DMSO and stored at −80° C. […] DMSO control wells and positive control wells containing a drug combination of Flavopiridol, Staurosporine and Velcade were placed on each plate, with the final concentration of DMSO ≤0.1% in all wells. Daughter plates were created using a V&P Scientific 384-well pin tool head operated by the Caliper Sciclone ALH 3000 and equipped with 0.457 mm diameter, 30 nanoliter, slotted stainless steel pins (cat num: FP1NS30). Daughter and destination plates were sealed with pealable thermal seals using a PlateLoc thermal sealer. Destination plates were stored at −20° C. for no more than three months and thawed immediately before use. Primary mononuclear cells were plated across single-agent inhibitor panels within 24 h of collection. […] After 3 d of culture at 37° C. in 5% CO2, MTS reagent (CellTiter96 AQueous One; Promega) was added, optical density was measured at 490 nm, and raw absorbance values were adjusted to a reference blank value and then used to determine cell viability (normalized to untreated control wells).
# A given sample was run on one or more panels and within each panel, the majority of drugs were run without within-panel replicates. […] An additional set of ‘curve-free’ AUCs was computed for sample-inhibitor pairs run on multiple panels.
# Based on the methodology used in our prior drug combination study^36, a probit regression was fit to all possible run groups using the model: (normalized_viability/100)˜1+log 10(concentration) Where for all groups there were N=7 dose-response measurements. The summary measures of curve fit were inspected and cutoffs were devised removing all runs with an AIC >12 and deviance >2.
# [1] = BCOR mutation alone or co-mutation of BCOR with DNMT3A or SRSF2
compound,measurement,setting,value
COc1cc2nccc(Oc3ccc(NC(=O)NC4CC4)c(Cl)c3)c2cc1C(N)=O [Lenvatinib],drug sensitivity mutant vs wild type (average difference in AUC; top left quadrant of volcano plot),DNMT3A,Lenvatinib
same,drug sensitivity mutant vs wild type (average difference in AUC; top left quadrant of volcano plot),FLT3_ITD,lanvatinib
same,drug sensitivity mutant vs wild type (average difference in AUC; top left quadrant of volcano plot),IDH2,Lenvatinib
same,drug sensitivity mutant vs wild type (average difference in AUC; top left quadrant of volcano plot),NPM1,Levatinib
same,drug sensitivity mutant vs wild type (average difference in AUC; top left quadrant of volcano plot),NPM1:DNMT3A,Lenvatinib
same,drug sensitivity mutant vs wild type (average difference in AUC; top left quadrant of volcano plot),NPM1:DNMT3A:FLT3,lenvantinib
same,drug sensitivity mutant vs wild type (average difference in AUC; top left quadrant of volcano plot),NPM1:FLT3_ITD,lenvatinib
same,drug sensitivity mutant vs wild type (average difference in AUC; top left quadrant of volcano plot),NPM1:IDH2,lenvatinib
same,drug sensitivity mutant vs wild type (average difference in AUC; top left quadrant of volcano plot),NPM1:SRSF2,lenvatinib
same,drug sensitivity mutant vs wild type (average difference in AUC; top left quadrant of volcano plot),NPM1:TET2: DNMT3A,Lenvatinib
JAK Inhibitor I,"sensitivity to JAK kinase inhibitors, mutant versus wild type (average AUC difference, one-way ANOVA)",[1],no difference in sensitivity
same,"sensitivity to JAK kinase inhibitors, mutant versus wild type (average AUC difference, one-way ANOVA)",co-mutation of BCOR with RUNX1,increased sensitivity
CC(C)(C)c1cc(NC(=O)Nc2ccc(-c3cn4c(n3)sc3cc(OCCN5CCOCC5)ccc34)cc2)no1 [Quizartinib],drug sensitivity mutant vs wild type (average difference in AUC; top left quadrant of volcano plot),NPM1,quizartinib
same,drug sensitivity mutant vs wild type (average difference in AUC; top left quadrant of volcano plot),NPM1:DNMT3A,Quizartinib
same,drug sensitivity mutant vs wild type (average difference in AUC; top left quadrant of volcano plot),NPM1:IDH2,quizartinib
same,drug sensitivity mutant vs wild type (average difference in AUC; top left quadrant of volcano plot),NPM1:SRSF2,quizartinib
COc1cc2nccc(Oc3ccc(NC(=O)Nc4cc(C)on4)c(Cl)c3)c2cc1OC [Tivozanib],drug sensitivity mutant vs wild type (average difference in AUC; top left quadrant of volcano plot),CELSR2,Tivozanib (AV-951)
same,drug sensitivity mutant vs wild type (average difference in AUC; top left quadrant of volcano plot),FLT3_ITD,tivozanib
same,drug sensitivity mutant vs wild type (average difference in AUC; top left quadrant of volcano plot),NPM1,Tivozanib
same,drug sensitivity mutant vs wild type (average difference in AUC; top left quadrant of volcano plot),NPM1:FLT3_ITD,Tivozanib
same,drug sensitivity mutant vs wild type (average difference in AUC; top left quadrant of volcano plot),NPM1:FLT3_ITD:DNMT3A,tivozanib
COc1c(Cl)cc2c([nH]c3cnccc32)c1NC(=O)c1cccnc1C [MLN120B],drug sensitivity mutant vs wild type (average difference in AUC; top left quadrant of volcano plot),NPM1:IDH2,MLN120B
same,drug sensitivity mutant vs wild type (average difference in AUC; top left quadrant of volcano plot),NPM1:SRSF2,MLN120B
Cn1c2ccccc2c2c3c(c4c5ccccc5n(CCC#N)c4c21)CNC3=O [Go6976],drug sensitivity mutant vs wild type (average difference in AUC; top left quadrant of volcano plot),CBFB.MYH11,Go6976
N#CCNC(=O)c1ccc(-c2ccnc(Nc3ccc(N4CCOCC4)cc3)n2)cc1 [cyt387],"sensitivity to JAK kinase inhibitors, mutant versus wild type (average AUC difference, one-way ANOVA)",[1],no difference in sensitivity
same,drug sensitivity mutant vs wild type (average difference in AUC; top left quadrant of volcano plot),FLT3_ITD,cyt387
same,drug sensitivity mutant vs wild type (average difference in AUC; top left quadrant of volcano plot),NPM1:FLT3_ITD,cyt387
same,"sensitivity to JAK kinase inhibitors, mutant versus wild type (average AUC difference, one-way ANOVA)",co-mutation of BCOR with RUNX1,increased sensitivity
CN(C)CC[C@H](CSc1ccccc1)Nc1ccc(S(=O)(=O)NC(=O)c2ccc(N3CCN(Cc4ccccc4-c4ccc(Cl)cc4)CC3)cc2)cc1[N+](=O)[O-] [ABT-737],drug sensitivity mutant vs wild type (average difference in AUC; top left quadrant of volcano plot),PML.RARA,ABT-737
"O=c1[nH]c(-c2ccc(C(F)(F)F)cc2)nc2c1CSCC2 [XAV-939, 3,5,7,8-Tetrahydro-2-[4-(trifluoromethyl)phenyl]-4H-thiopyrano[4,3-d]pyrimidin-4-one]",drug sensitivity mutant vs wild type (average difference in AUC; top left quadrant of volcano plot),BCOR,XAV-939
same,drug sensitivity of mutant cases,BCOR mutation alone,did show sensitivity
same,drug sensitivity mutant vs wild type (average difference in AUC; top left quadrant of volcano plot),BCOR:ASXL1,XAV-939
same,drug sensitivity mutant vs wild type (average difference in AUC; top left quadrant of volcano plot),BCOR:DNMT3A,XAV-939
same,drug sensitivity mutant vs wild type (average difference in AUC; top left quadrant of volcano plot),BCOR:SRSF2,XAV-939
CNC(=O)c1cc(Oc2ccc(NC(=O)Nc3ccc(Cl)c(C(F)(F)F)c3)c(F)c2)ccn1 [Regorafenib],drug sensitivity mutant vs wild type (average difference in AUC; top left quadrant of volcano plot),FLT3_ITD,regorafenib
same,drug sensitivity mutant vs wild type (average difference in AUC; top left quadrant of volcano plot),NPM1,Regorafenib
same,drug sensitivity mutant vs wild type (average difference in AUC; top left quadrant of volcano plot),NPM1:DNMT3A,Regorafenib
same,drug sensitivity mutant vs wild type (average difference in AUC; top left quadrant of volcano plot),NPM1:FLT3_ITD,regorafenib
same,drug sensitivity mutant vs wild type (average difference in AUC; top left quadrant of volcano plot),NPM1:FLT3_ITD:DNMT3A,regorafenib
same,drug sensitivity mutant vs wild type (average difference in AUC; top left quadrant of volcano plot),NPM1:IDH2,regorafenib
same,drug sensitivity mutant vs wild type (average difference in AUC; top left quadrant of volcano plot),NPM1:SRSF2,regorafenib
same,drug sensitivity mutant vs wild type (average difference in AUC; top left quadrant of volcano plot),NPM1:TET2: DNMT3A,Regorafenib
Clc1ccc(Nc2nnc(Cc3ccncc3)c3ccccc23)cc1 [Vatalanib],drug sensitivity mutant vs wild type (average difference in AUC; top left quadrant of volcano plot),FLT3_ITD,vatalanib
same,drug sensitivity mutant vs wild type (average difference in AUC; top left quadrant of volcano plot),FLT3_ITD:ASXL1,vatalanib
same,drug sensitivity mutant vs wild type (average difference in AUC; top left quadrant of volcano plot),MLLT3.KMT2A,Vatalanib
same,drug sensitivity mutant vs wild type (average difference in AUC; top left quadrant of volcano plot),NPM1:FLT3_ITD,vatalanib
same,drug sensitivity mutant vs wild type (average difference in AUC; top left quadrant of volcano plot),SMC1A,Vatalanib
CN1CC[C@H](c2c(O)cc(O)c3c(=O)cc(-c4ccccc4Cl)oc23)[C@H](O)C1 [Flavopiridol],drug sensitivity mutant vs wild type (average difference in AUC; top left quadrant of volcano plot),NRAS,"(GSK1120212), or Flavopiridol"
CCS(=O)(=O)O.COC(=O)c1ccc2c(c1)NC(=O)/C2=C(\Nc1ccc(N(C)C(=O)CN2CCN(C)CC2)cc1)c1ccccc1 [Vargetef],drug sensitivity mutant vs wild type (average difference in AUC; top left quadrant of volcano plot),FLT3_ITD,vargetef
same,drug sensitivity mutant vs wild type (average difference in AUC; top left quadrant of volcano plot),FLT3_ITD:DNMT3A,vargetef
same,drug sensitivity mutant vs wild type (average difference in AUC; top left quadrant of volcano plot),FLT3_ITD:FLT3,vargetef
same,drug sensitivity mutant vs wild type (average difference in AUC; top left quadrant of volcano plot),FLT3_ITD:TET2,vargetef
same,drug sensitivity mutant vs wild type (average difference in AUC; top left quadrant of volcano plot),FLT3_ITD:TET2:DNMT3A,Vargetef
same,drug sensitivity mutant vs wild type (average difference in AUC; top left quadrant of volcano plot),FLT3_ITD_IHD2,vargetef
same,drug sensitivity mutant vs wild type (average difference in AUC; top left quadrant of volcano plot),IDH2,Vargetef
same,drug sensitivity mutant vs wild type (average difference in AUC; top left quadrant of volcano plot),NPM1,Vagetef
same,drug sensitivity mutant vs wild type (average difference in AUC; top left quadrant of volcano plot),NPM1:FLT3_ITD,vargetef
same,drug sensitivity mutant vs wild type (average difference in AUC; top left quadrant of volcano plot),NPM1:FLT3_ITD:DNMT3A,vargetef
same,drug sensitivity mutant vs wild type (average difference in AUC; top left quadrant of volcano plot),NPM1:FLT3_ITD:TET2,vargetef
same,drug sensitivity mutant vs wild type (average difference in AUC; top left quadrant of volcano plot),NPM1:IDH2,Vargetef
same,drug sensitivity mutant vs wild type (average difference in AUC; top left quadrant of volcano plot),NPM1:SRSF2,Vargetef
same,drug sensitivity mutant vs wild type (average difference in AUC; top left quadrant of volcano plot),NPM1:TET2: DNMT3A,Vargetef
O=c1ncn2nc(Sc3ccc(F)cc3F)ccc2c1-c1c(Cl)cccc1Cl [vx-745],drug sensitivity mutant vs wild type (average difference in AUC; top left quadrant of volcano plot),FLT3_ITD,vx-745
same,drug sensitivity mutant vs wild type (average difference in AUC; top left quadrant of volcano plot),FLT3_ITD:ASXL1,vx-745
same,drug sensitivity mutant vs wild type (average difference in AUC; top left quadrant of volcano plot),NPM1:IDH2,vx-
same,drug sensitivity mutant vs wild type (average difference in AUC; top left quadrant of volcano plot),NPM1:SRSF2,vx-745
"Cc1ccc2nc(NCCN)c3ncc(C)n3c2c1 [BMS-345541, N′-(1,8-dimethyl-4-imidazo[1,2-a]quinoxalinyl)ethane-1,2-diamine]",drug sensitivity mutant vs wild type (average difference in AUC; top left quadrant of volcano plot),PDS5B,BMS-345541
CC(C)n1nc(-c2ccc3oc(N)nc3c2)c2c(N)ncnc21 [INK-128],drug sensitivity mutant vs wild type (average difference in AUC; top left quadrant of volcano plot),FLT3_ITD,INK-128
same,drug sensitivity mutant vs wild type (average difference in AUC; top left quadrant of volcano plot),NPM1:FLT3_ITD,ink-128
Cc1cc(Nc2cc(N3CCN(C)CC3)nc(Sc3ccc(NC(=O)C4CC4)cc3)n2)[nH]n1 [Tozasertib],drug sensitivity mutant vs wild type (average difference in AUC; top left quadrant of volcano plot),FLT3_ITD,Tozasertib
same,drug sensitivity mutant vs wild type (average difference in AUC; top left quadrant of volcano plot),FLT3_ITD:DNMT3A,tozasertib
same,drug sensitivity mutant vs wild type (average difference in AUC; top left quadrant of volcano plot),FLT3_ITD_IHD2,tozasertib
same,drug sensitivity mutant vs wild type (average difference in AUC; top left quadrant of volcano plot),IDH2,Tozasertib
same,drug sensitivity mutant vs wild type (average difference in AUC; top left quadrant of volcano plot),NPM1:FLT3_ITD:DNMT3A,tozasertib
same,drug sensitivity mutant vs wild type (average difference in AUC; top left quadrant of volcano plot),NPM1:SRSF2,Tozasertib
CC1(C)CNc2cc(NC(=O)c3cccnc3NCc3ccncc3)ccc21 [motesanib],drug sensitivity mutant vs wild type (average difference in AUC; top left quadrant of volcano plot),FLT3_ITD:RUNX1,motesanib
